Source: BindingDB's records for patent US20250257059 (Nerio Therapeutics, 2025)

Biological target: T1, Tyrosine-protein phosphatase non-receptor type 2 (Homo sapiens, UniProt P17706)
T1 sequence (P17706 whole entry): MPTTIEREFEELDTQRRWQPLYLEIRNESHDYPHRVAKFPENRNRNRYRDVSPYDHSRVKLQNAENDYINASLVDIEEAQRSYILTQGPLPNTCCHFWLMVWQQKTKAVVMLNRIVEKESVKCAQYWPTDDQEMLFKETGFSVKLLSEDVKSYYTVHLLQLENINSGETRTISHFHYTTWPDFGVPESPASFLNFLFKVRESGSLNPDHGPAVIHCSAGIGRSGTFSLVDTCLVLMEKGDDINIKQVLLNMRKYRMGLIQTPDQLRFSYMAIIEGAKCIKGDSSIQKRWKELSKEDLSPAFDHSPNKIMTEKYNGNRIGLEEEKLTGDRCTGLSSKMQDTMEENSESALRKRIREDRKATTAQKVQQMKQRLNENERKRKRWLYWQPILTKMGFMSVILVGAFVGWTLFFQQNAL
Experiment: In vitro enzymatic assay
Experimental: PTPN2 was produced in E. coli as a GST-TEV fusion and the GST was removed by TEV digestion, followed by additional purification to yield full-length PTPN2 (SEQ ID 1). PTPN2 enzyme was diluted in assay buffer (50 mM HEPES pH7.5, 0.2 mM EDTA, 1 mM DTT, 0.02% Brij-35, 0.02% BSA) to a final concentration of 0.5 nM and added to black 384-well non-binding plates (Greiner, 781900). Compounds were subsequently added using a Tecan D300e dispenser. Following a 10 min incubation at room temperature, DiFMUP substrate (ThermoFisher, D22065) was added to a final concentration of 100 μM. Plates were transferred to a SpectraMax plate reader (Molecular Devices) and fluorescence intensity was measured (ex 358, em 455) after a 30 min incubation at room temperature. […] A four-parameter curve fit was used to determine IC50 values from % inhibition data.

SMILES	IC50 [nM]
O=C1CN(c2c(O)ccc(CC3CCCCN3CCC3CCCC3)c2F)S(=O)(=O)N1 (centres undefined) [US20250257059, Example 80]	5
O=C1CN(c2c(O)cc(CCN3CCC4(CCCC4)C3)cc2F)S(=O)(=O)N1 [US20250257059, Example 112]	2
O=C1CN(c2c(O)cc(CCN3Cc4ccccc4C3)cc2F)S(=O)(=O)N1 [US20250257059, Example 128]	2
O=C1CN(c2c(O)cc(CC3CCCCNC3)cc2F)S(=O)(=O)N1 (centres undefined) [US20250257059, Example 55]	16
O=C1CN(c2c(O)cc(CCN3CC(C(F)(F)F)C3)cc2F)S(=O)(=O)N1 [US20250257059, Example 137]	5
CC(C)CCCN1CCCCC1Cc1ccc(O)c(N2CC(=O)NS2(=O)=O)c1F (centres undefined) [US20250257059, Example 79]	7
O=C1CN(c2c(O)cc(CCN3CCC4(CCOCC4)C3)cc2F)S(=O)(=O)N1 [US20250257059, Example 113]	2
O=C1CN(c2c(O)cc(CCN3CCOCC3)cc2F)S(=O)(=O)N1 [US20250257059, Example 89]	7
O=C1CN(c2c(O)cc(CC3CCN(Cc4ccco4)C3)cc2F)S(=O)(=O)N1 (centres undefined) [US20250257059, Example 7]	7

Second part, the molecule after the results:

IC50 [nM]	SMILES
1	COC[C@@H]1CCN(CCc2cc(O)c(N3CC(=O)NS3(=O)=O)c(F)c2)C1 [US20250257059, Example 117]
2	CC1(C)CN(CCc2cc(O)c(N3CC(=O)NS3(=O)=O)c(F)c2)C1 [US20250257059, Example 127]
3	O=C1CN(c2c(O)cc(CCN3CCCC(F)C3)cc2F)S(=O)(=O)N1 (centres undefined) [US20250257059, Example 97]
2	CC1CN(CCc2cc(O)c(N3CC(=O)NS3(=O)=O)c(F)c2)C1 [US20250257059, Example 140]
3	COC1CCN(CCc2cc(O)c(N3CC(=O)NS3(=O)=O)c(F)c2)CC1 [US20250257059, Example 104]
1	CC(C)[C@@H]1CCN(CCc2cc(O)c(N3CC(=O)NS3(=O)=O)c(F)c2)C1 [US20250257059, Example 134]
2	CC(C)(C)C1CCN(CCc2cc(O)c(N3CC(=O)NS3(=O)=O)c(F)c2)C1 (centres undefined) [US20250257059, Example 111]
2	CC(C)[C@H]1CCN(CCc2cc(O)c(N3CC(=O)NS3(=O)=O)c(F)c2)C1 [US20250257059, Example 135]
3	O=C1CN(c2c(O)cc(CCN3CC(F)C3)cc2F)S(=O)(=O)N1 [US20250257059, Example 136]
3	O=C1CN(c2c(O)cc(CCN3CC[C@@H](C(F)(F)F)C3)cc2F)S(=O)(=O)N1 [US20250257059, Example 122]
